Data taken from patent US12722014B2, “Method of treating drug resistant hypertension and heart failure with preserved ejection fraction by combined drug treatment with baropacing and beta blockers” (BaroPace, Inc., priority 2020, dated 2026).

Tests used:
[1] = Prospective study of BaroPacing (raising right atrial pacing rate) in 14 subjects with hypertension and dual chamber pacemakers; format: in vivo, human; conditions: 8 patients taking either Metoprolol or Carvedilol vs 6 subjects not taking any beta blockers (p<0.004 in the latter)
From the text: I have prospectively studied 14 subjects with hypertension and dual chamber pacemakers, 6 not taking any beta blockers, and 8 taking either metoprolol or carvedilol. […] PressurePacing or BaroPacing is defined to include the algorithmically controlled pacing methodologies and programmable pacemakers as disclosed in PCT/US19/59703; PCT/US20/025447; PCT/US21/42622; and US Provisional filing 63/123,951, each and all incorporated herein by reference.

[2] = Published retrospective and prospective study of BaroPacing by BaroPace's clinical research team; format: in vivo, human; conditions: current treatment with the beta blocker
From the text: Based on the observation that pacemaker implant in patients with drug resistant hypertension (DRH) and heart failure with preserved ejection fraction (HFpEF) lowers blood pressure and improves clinical outcomes, BaroPace, Inc. is developing technology to treat drug resistant hypertension and (HFpEF) by regulating cardiac pacemakers in real time in response to blood pressure (BaroPacing™). […] The BaroPacing research model offers a now-proven cost efficient means of screening ISA drugs such as pindolol and acebutolol to test this hypothesis. If proven true, besides a new patentable indication, such results could lead to a treatment paradigm shift and clinical revitalization of ISA beta blockers.

Structure (SMILES)	significant lowering of systolic blood pressure (>10 mmHg) by BaroPacing [1]	beneficial blood pressure lowering effects of BaroPacing [2]	improvement in New York Heart Association Class seen in HFpEF with BaroPacing [2]
COCCc1ccc(OCC(O)CNC(C)C)cc1 (stereo not drawn) [Metoprolol, metoprolol]	lost	substantially blunts	substantially blunts
COc1ccccc1OCCNCC(O)COc1cccc2[nH]c3ccccc3c12 (stereo not drawn) [Carvedilol]	lost	substantially blunts	substantially blunts
